Consider four compounds from paper PMC4634704 (Bioorganic & medicinal chemistry letters, 2015).

Series [1] can be described thus: Simulated gastric fluid solubility and stability. To be noted: 1 h, 37 °C.
The nature of series [2]: Hepatic microsomal intrinsic clearance, rat. To be noted: predicted hepatic clearance.
Series [3] in a line: Rat IV cassette PK. To be noted: male, Sprague-Dawley, in vivo, 0.2 mg/kg.
The nature of series [4]: Rat modified Irwin study / acute CNS behavioural observation.
Series [5] addresses mGlu5 (Rattus norvegicus, UniProt P31424). Kind of series: Allosteric agonism in rat astrocytes. It is filed as cell-based. To be noted: mGlu5 endogenously expressed.
The nature of series [6]: Rat plasma stability. To be noted: 4 h incubation; 37 °C.
Series [7] concerns the target mGlu5 (Homo sapiens, UniProt P41594). Put plainly: Allosteric agonism in cell lines over expressing mGlu5. It is filed as cell-based.
The nature of series [8]: Hepatic microsomal intrinsic clearance, human. To be noted: predicted hepatic clearance.
The subject of series [9] is mGlu1-4,6-8. Put plainly: mGlu family selectivity. It is filed as cell-based. To be noted: selectivity versus other mGlu family members.
In series [10] the test system is 68 distinct GPCRs, ion channels and transporters. Put plainly: Broad panel ancillary screen. It is filed as binding. As to conditions: 68 targets, Eurofins Inc.
Series [11] is described as follows: Discrete dog PK.
A short description of series [12]: Stability in vehicle formulation. In kind it is physicochemical. To be noted: 20% β-CD pH 6, 4 mg/mL, up to five days.
Series [13] has as its system major CYP450 enzymes. Put plainly: CYP450 inhibition.
A short description of series [14]: Discrete rat PK.
A short description of series [15]: Terminal brain and plasma levels from AHL studies.
For series [16] the following is noted: rat, cited from earlier work.
The mark [17] stands for this setting: 30 days, 360 mg/kg/day, IND-enabling.

For orientation: clearance means the rate of elimination divided by the concentration. Higher therefore signals efficient removal. As a reminder, the pIC50 is the IC50 on a negative log10 scale, so that one unit is a factor of ten.

pIC50: −log10 of the molar value. Where two headings read alike, the source gives them in different places.

Chain of mGlu5 (Rattus norvegicus, UniProt P31424) (P31424 21-1203): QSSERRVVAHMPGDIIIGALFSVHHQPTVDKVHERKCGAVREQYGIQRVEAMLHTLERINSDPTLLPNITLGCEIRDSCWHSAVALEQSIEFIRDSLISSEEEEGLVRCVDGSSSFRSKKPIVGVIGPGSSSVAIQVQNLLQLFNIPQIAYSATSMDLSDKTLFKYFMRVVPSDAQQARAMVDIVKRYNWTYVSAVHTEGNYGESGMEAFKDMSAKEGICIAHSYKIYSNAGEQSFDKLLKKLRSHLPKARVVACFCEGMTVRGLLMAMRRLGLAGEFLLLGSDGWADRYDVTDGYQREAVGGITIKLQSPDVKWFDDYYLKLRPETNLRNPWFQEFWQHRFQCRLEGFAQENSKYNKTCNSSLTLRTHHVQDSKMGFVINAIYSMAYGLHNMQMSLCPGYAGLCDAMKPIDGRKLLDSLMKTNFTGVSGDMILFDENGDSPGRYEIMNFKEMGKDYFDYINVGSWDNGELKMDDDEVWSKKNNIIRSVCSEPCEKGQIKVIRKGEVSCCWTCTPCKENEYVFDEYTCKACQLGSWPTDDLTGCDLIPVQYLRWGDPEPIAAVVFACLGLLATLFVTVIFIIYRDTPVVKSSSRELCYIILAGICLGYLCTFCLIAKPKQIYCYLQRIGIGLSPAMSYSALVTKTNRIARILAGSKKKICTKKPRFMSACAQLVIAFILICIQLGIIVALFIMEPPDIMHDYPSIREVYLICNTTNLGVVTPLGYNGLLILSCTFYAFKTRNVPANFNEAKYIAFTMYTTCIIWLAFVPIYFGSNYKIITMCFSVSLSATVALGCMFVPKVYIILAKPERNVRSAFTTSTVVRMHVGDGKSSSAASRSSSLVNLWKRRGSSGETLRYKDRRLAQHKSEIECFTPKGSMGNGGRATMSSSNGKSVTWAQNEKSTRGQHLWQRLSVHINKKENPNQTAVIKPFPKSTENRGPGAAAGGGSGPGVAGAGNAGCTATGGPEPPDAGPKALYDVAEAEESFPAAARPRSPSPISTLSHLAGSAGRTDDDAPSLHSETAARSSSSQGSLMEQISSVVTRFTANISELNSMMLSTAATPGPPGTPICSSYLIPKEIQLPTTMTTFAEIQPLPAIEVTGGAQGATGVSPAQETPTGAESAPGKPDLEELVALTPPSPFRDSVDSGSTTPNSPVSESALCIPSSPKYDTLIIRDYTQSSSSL
Chain of mGlu5 (Homo sapiens, UniProt P41594) (P41594 21-1212): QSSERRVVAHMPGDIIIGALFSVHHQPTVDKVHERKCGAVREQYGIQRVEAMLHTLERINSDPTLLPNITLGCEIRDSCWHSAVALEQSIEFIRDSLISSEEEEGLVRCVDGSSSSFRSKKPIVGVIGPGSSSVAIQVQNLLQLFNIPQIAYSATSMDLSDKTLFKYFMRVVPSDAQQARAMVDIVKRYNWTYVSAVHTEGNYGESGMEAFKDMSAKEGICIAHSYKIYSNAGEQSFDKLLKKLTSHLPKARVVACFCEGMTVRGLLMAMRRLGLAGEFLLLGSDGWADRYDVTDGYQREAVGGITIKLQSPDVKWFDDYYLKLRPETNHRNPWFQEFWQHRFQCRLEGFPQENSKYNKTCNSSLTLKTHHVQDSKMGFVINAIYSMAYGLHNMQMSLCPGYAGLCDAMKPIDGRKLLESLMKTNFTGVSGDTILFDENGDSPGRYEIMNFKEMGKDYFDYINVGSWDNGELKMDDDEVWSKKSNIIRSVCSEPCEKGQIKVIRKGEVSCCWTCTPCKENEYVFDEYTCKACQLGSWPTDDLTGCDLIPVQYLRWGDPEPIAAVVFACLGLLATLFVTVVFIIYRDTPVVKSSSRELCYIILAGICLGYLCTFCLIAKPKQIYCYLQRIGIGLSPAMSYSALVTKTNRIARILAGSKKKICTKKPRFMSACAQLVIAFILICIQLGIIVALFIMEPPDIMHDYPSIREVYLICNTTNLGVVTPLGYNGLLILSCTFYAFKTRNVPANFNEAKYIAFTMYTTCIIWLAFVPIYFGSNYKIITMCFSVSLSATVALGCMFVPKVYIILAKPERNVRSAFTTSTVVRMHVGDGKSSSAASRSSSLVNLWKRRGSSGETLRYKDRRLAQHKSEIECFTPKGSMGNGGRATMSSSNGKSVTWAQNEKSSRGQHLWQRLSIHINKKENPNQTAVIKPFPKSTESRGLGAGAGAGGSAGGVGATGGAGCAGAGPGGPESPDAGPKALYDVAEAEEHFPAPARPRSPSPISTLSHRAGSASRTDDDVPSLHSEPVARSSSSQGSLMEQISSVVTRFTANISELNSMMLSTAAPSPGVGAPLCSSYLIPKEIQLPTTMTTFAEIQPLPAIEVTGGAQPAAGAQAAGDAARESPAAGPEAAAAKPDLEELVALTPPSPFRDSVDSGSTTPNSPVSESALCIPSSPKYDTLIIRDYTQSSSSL

For the compound `CC(=O)N1CCCn2nc(COc3ccccc3)cc21` [9a, 1-(2-(phenoxymethyl)-6,7-dihydropyrazolo[1,5-a]pyrimidin-4(5H)-yl)ethanone], the “decomposition in simulated gastric fluid” value in [1] is reported as less than 5%. The “CLhep (r)” value in [2] is reported as more than 35 mL/min/kg. In addition, the clearance in series [3] was more than 70 mL/min/kg; in [11], “moderate to high”; in series [14], “moderate to high”. In series [4] (56.6 mg/kg, rat), this compound returned a brain concentration of 113 µM. In series [4] (modified Irwin concentrations versus AHL MED), this compound yielded a safety window not below 100 fold. Further, the “behaviour across 30 autonomic and somatomotor endpoints” value in series [4] (modified Irwin, 30 mg/kg PO, rat) is given as “no observable alterations in behavior”. In addition, the concentration at 1 h in series [4] (rat, in vivo, 30 mg/kg, est. Cb,u, 30 mg/kg PO, 1.0 h post-dose) was 36 µM. Also, the allosteric agonism result in series [5] and in [7] was “no allosteric agonism was detected” in each case. Moreover, the rat plasma stability entry in series [6] was “stable”. The “CLhep (h)” value in [8] is more than 12 mL/min/kg. For the same compound, the “FS at mGlu1-4,6-8” value in series [9] is given as less than 1.2. Besides, the “activity in broad panel ancillary screen” value in series [10] was “no noted activity”. The bioavailability result in [11] is “low bioavailability”. In [11] (IV and oral), the exposure entry is on record as “poor exposure”. In addition, the “decomposition in vehicle formulation” value in series [12] was less than 5%. The pIC50 in series [13] is less than 4.52. In series [15] (AHL 3 mg/kg PO, rat), the “terminal estimated unbound brain concentration” value is on record as 199 nM.
Compound `CC(=O)N1CCCn2nc(COc3ccccc3F)cc21` [12a] registered a clearance in [3] of more than 70 mL/min/kg. Further, the rat plasma stability result in series [6] was “stable”. The terminal brain concentration result in series [15] (AHL 10 mg/kg PO, T90, rat) is “not detected”.
Take `CC(=O)N1CCCn2nc(COc3cccc(F)c3)cc21` [12b]: the “CLhep (r)” value in [2] was more than 35 mL/min/kg. The “CLhep (h)” value in series [8] is more than 12 mL/min/kg.
Regarding `O=C(c1ccc(F)cc1)N1CCc2nc(COc3ccccc3)oc2C1` [compound 1], the neurotoxicity result in series [16] (14 day oral dose-limiting study, 450 mg/kg/day) was “no neurotoxicity was observed”. For the same compound, the exposure in series [16] (14 day, 450 mg/kg/day) is given as 273-440 μM-h. In addition, in series [16] (setting [17]), the “Fluoro-Jade C staining” value is on record as “induced Fluoro-Jade C staining in a small number of rats” and the exposure is given as 253-416 μM-h.
